Measurements: patent US20120196899A1, “METHODS AND PRODUCTS FOR TREATING INFLAMMATION” (Rock Creek Pharmaceuticals, Inc., priority 2010, published 2012)
Values joined by “and” are separate entries in the source; they are usually repeats but may differ in a detail not shown here. Equal entries are not always repeated. Where two headings read alike, the source gives them in different places.

Assay: Plasma pharmacokinetics after oral multi-dose anatabine polacrilex
Type: in vivo, Sprague-Dawley rats
Conditions: for Cp,max(1): after dose 1, mean; for Cp,max(3): after dose 3, mean; for Cp,max(2): after dose 2, mean; for AUC(0-inf) / concentration at 270 min / concentration at 300 min / concentration at 475 min / concentration at 540 min / concentration at 600 min / concentration at 720 min / concentration at 30 min / concentration at 60 min / concentration at 235 min / half-life: Sprague-Dawley, rat, plasma; for AUC(0-inf) / half-life: po; for concentration at 270 min / concentration at 300 min / concentration at 475 min / concentration at 540 min / concentration at 600 min / concentration at 720 min / concentration at 30 min / concentration at 60 min / concentration at 235 min: oral, Avg. Conc. of anatabine in plasma, Male and Female
Experimental: This study consisted of two groups of 8 animals each, 4 males and 4 females.
Two formulations were prepared; one for each of the two treatment groups. The test compound was formulated for each treatment group just prior to the first dose administration and constantly stirred until dosing was completed (Table 37). Four aliquots of each dose level formulation were collected and stored at −80° C.
The animals were weighed prior to dosing and received three doses p.o. of test compound at a volume of 5 mL/kg. Blood was collected via the venus plexus (retro-orbital) into tubes containing (K2) EDTA. No more than 0.5 mL was collected per time point.
Plasma was separated as per package instructions for MICROTAINER® brand collection tubes (3 minutes, 2000×g). Plasma was decanted into microfuge tubes and stored at −80° C. Remaining test compound was placed at −80° C.
Sample preparation. Plasma samples were treated with three volumes of methanol containing internal standard at 1 μM (R,S)-Antabine-2,4,5,6-d4), incubated 10 min at 4° C., and centrifuged. The amount of the test agent in the supernatant was determined by LC/MS/MS.
Analysis. Samples were analyzed by LC/MS/MS using an Agilent 6410 mass spectrometer coupled with an Agilent 1200 high pressure liquid chromatography (HPLC) and a CTC PAL chilled autosampler, all controlled by MassHunter software (Agilent). After separation on a Hydrophilic interaction liquid chromatography (HILIC) HPLC column (Sepax) using an acetonitrile-ammonium acetate/acetic acid gradient system, peaks were analyzed by mass spectrometry (MS) using ESI ionization in multiple reaction monitoring (MRM) mode. MassHunter software was used to calculate the concentration of the test compounds in samples from the peak area using the appropriate calibration curves.
Calibration samples. Calibration curves were determined in rat plasma. Calibration samples were prepared by diluting a 50× stock solution of the test compound in PBS with blank matrix to the appropriate concentration and these samples were prepared as described above in the sample preparation.
Data Analysis. Descriptive statistics were calculated for all pharmacokinetic parameters. Elimination half-lives (t1/2) were calculated by linear regression of logarithmically transformed plasma concentration data for each period between doses and following the final dose.
Total areas under the plasma concentration curves (AUC) and under the first moment curves (AUMC) were calculated using linear trapezoidal summation across all concentration time points as well as for intervals between each dose administration and following the final dose. […] Mean absorption times (MAT) were calculated according to the following relation: […]
where MRT represents the mean residence time. This was calculated from the mean residence times.
The statistical comparison of parameters between male and female animals was made using a two-tailed, unpaired, t-test with a 95 percent confidence interval. Repeated-measures analysis of variance (ANOVA) was used for multiple comparisons of Cp, max involving successive determinations on the same group of animals.

[1] = 0.6 mg/kg, male and female combined, mean
[2] = 6.0 mg/kg, male and female combined, mean
[3] = all data combined (overall), mean
[4] = both dose levels and genders combined, anatabine polacrilex p.o.
[5] = both treatment groups combined, female rats, mean
[6] = both treatment groups combined, male rats, mean

C1=CCC(c2cccnc2)NC1 (racemic) [Anatabine, 1,2,3,6-tetrahydro-[2,3′]bipyridinyl]
Cp,min(2) (0.6 mg/kg BW group, first value of male versus female comparison): 0.0153 ± 0.0055 µg/mL | Cp,min(2) (0.6 mg/kg BW group, second value of male versus female comparison): 0.0075 ± 0.0017 µg/mL | Cp,max(1) (0.6 mg/kg, female rats): 0.0383 µg/mL | Cp,min(1) (0.6 mg/kg, female rats, mean): 0.0103 µg/mL | Cp,min(2) (0.6 mg/kg, female rats, mean): 0.0075 µg/mL | MAT0→4 (mean absorption time) (0.6 mg/kg, female rats, mean): 0.53 h | MTT0→4 (mean transit time) (0.6 mg/kg, female rats, mean): 2.98 h | AUC0→∞ [1]: 0.285 µg·h/mL | MAT0→4 [1]: 0.61 h | MTT0→4 [1]: 3.06 h | Cp,max(1) (0.6 mg/kg, male rats): 0.0343 µg/mL | Cp,max(3) (0.6 mg/kg, male rats): 0.0373 µg/mL | Cp,min(1) (0.6 mg/kg, male rats, mean): 0.011 µg/mL | Cp,min(2) (0.6 mg/kg, male rats, mean): 0.0153 µg/mL | MAT0→4 (mean absorption time) (0.6 mg/kg, male rats, mean): 0.71 h | MTT0→4 (mean transit time) (0.6 mg/kg, male rats, mean): 3.17 h | Cp,min(2) (6.0 mg/kg BW group, first value of male versus female comparison): 0.093 ± 0.016 µg/mL | Cp,max(1) (6.0 mg/kg, female rats): 0.26 µg/mL and 0.2598 µg/mL | Cp,max(2) (6.0 mg/kg, female rats): 0.312 µg/mL | Cp,max(3) (6.0 mg/kg, female rats): 0.375 µg/mL and 0.3748 µg/mL | Cp,min(1) (6.0 mg/kg, female rats, mean): 0.052 µg/mL and 0.0515 µg/mL | Cp,min(2) (6.0 mg/kg, female rats, mean): 0.18 µg/mL | MAT0→4 (mean absorption time) (6.0 mg/kg, female rats, mean): 0.30 h | MTT0→4 (mean transit time) (6.0 mg/kg, female rats, mean): 2.76 h | AUC0→∞ [2]: 3.496 µg·h/mL | MAT0→4 [2]: 0.52 h | MTT0→4 [2]: 2.97 h | Cp,max(1) (6.0 mg/kg, male rats): 0.287 µg/mL | Cp,max(2) (6.0 mg/kg, male rats): 0.305 µg/mL | Cp,min(1) (6.0 mg/kg, male rats, mean): 0.075 µg/mL | Cp,min(2) (6.0 mg/kg, male rats, mean): 0.093 µg/mL | MAT0→4 (mean absorption time) (6.0 mg/kg, male rats, mean): 0.73 h | MTT0→4 (mean transit time) (6.0 mg/kg, male rats, mean): 3.18 h | AUC(0-inf) (0.6 mg/kg, female rats, mean): 0.29 µg·h/mL | AUC(0-inf) (0.6 mg/kg, male rats, mean): 0.28 µg·h/mL | AUC(0-inf) (6.0 mg/kg, female rats, mean): 3.73 µg·h/mL | AUC(0-inf) (6.0 mg/kg, male rats, mean): 3.26 µg·h/mL | MAT0→4 [3]: 0.56 h | MTT0→4 [3]: 3.01 h | mean absorption time (MAT0→4) [4]: 0.56 ± 1.25 h | mean transit time (MTT0→4) [4]: 3.01 ± 1.25 h | concentration at 270 min (both sexes, 0.2 mg/kg BW, dose group 0.2, combined male and female, 270 min): 0.026 µg/mL | concentration at 300 min (both sexes, 0.2 mg/kg BW, dose group 0.2, combined male and female, 300 min): 0.027 µg/mL | concentration at 475 min (both sexes, 0.2 mg/kg BW, dose group 0.2, combined male and female, 475 min): 0.011 µg/mL | concentration at 540 min (both sexes, 0.2 mg/kg BW, dose group 0.2, combined male and female, 540 min): 0.03 µg/mL | concentration at 600 min (both sexes, 0.2 mg/kg BW, dose group 0.2, combined male and female, 600 min): 0.026 µg/mL | concentration at 720 min (both sexes, 0.2 mg/kg BW, dose group 0.2, combined male and female, 720 min): 0.013 µg/mL | concentration at 30 min (both sexes, 0.2 mg/kg, dose group 0.2, combined male and female, 30 min): 0.036 µg/mL | concentration at 60 min (both sexes, 0.2 mg/kg, dose group 0.2, combined male and female, 60 min): 0.031 µg/mL | concentration at 235 min (both sexes, 0.2 mg/kg, dose group 0.2, combined male and female, 235 min): 0.01 µg/mL | concentration at 30 min (both sexes, 2 mg/kg BW, dose group 2, combined male and female, 30 min): 0.201 µg/mL | concentration at 60 min (both sexes, 2 mg/kg BW, dose group 2, combined male and female, 60 min): 0.139 µg/mL | concentration at 235 min (both sexes, 2 mg/kg BW, dose group 2, combined male and female, 235 min): 0.063 µg/mL | concentration at 270 min (both sexes, 2 mg/kg BW, dose group 2, combined male and female, 270 min): 0.278 µg/mL | concentration at 300 min (both sexes, 2 mg/kg BW, dose group 2, combined male and female, 300 min): 0.222 µg/mL | concentration at 475 min (both sexes, 2 mg/kg BW, dose group 2, combined male and female, 475 min): 0.136 µg/mL | concentration at 540 min (both sexes, 2 mg/kg BW, dose group 2, combined male and female, 540 min): 0.286 µg/mL | concentration at 600 min (both sexes, 2 mg/kg BW, dose group 2, combined male and female, 600 min): 0.237 µg/mL | concentration at 720 min (both sexes, 2 mg/kg BW, dose group 2, combined male and female, 720 min): 0.194 µg/mL | half-life (both sexes, 0.6 mg/kg, 0.6 mg/kg BW total p.o., after final dose, males and females combined, read-out: t1/2, terminal (converted)): 1.79 ± 0.64 h | half-life (both sexes, 0.6 mg/kg, male and female combined, mean, read-out: t1/2,0→4 (converted)): 2.05 h | half-life (both sexes, 0.6 mg/kg, male and female combined, mean, read-out: t1/2,terminal (converted)): 1.79 h | half-life (both sexes, 6 mg/kg, 6.0 mg/kg BW total p.o., after final dose, males and females combined, read-out: t1/2, terminal (converted)): 4.53 ± 1.77 h | half-life (both sexes, 6 mg/kg, male and female combined, mean, read-out: t1/2,0→4 (converted)): 1.79 h | half-life (both sexes, 6 mg/kg, male and female combined, mean, read-out: t1/2,terminal (converted)): 4.53 h | half-life (both sexes, all data combined (overall), mean, read-out: t1/2,0→4 (converted)): 1.93 h | half-life (both sexes, both dose levels and genders combined, anatabine polacrilex p.o., read-out: elimination half-life following the first oral dose (t1/2, 0→4) (converted)): 1.93 ± 0.73 h | AUC(0-inf) (both sexes, 0.6 mg/kg BW total p.o., males and females combined): 0.285 ± 0.077 µg·h/mL | AUC(0-inf) (both sexes, 6.0 mg/kg BW total p.o., males and females combined): 3.5 ± 0.559 µg·h/mL | MAT0→4 [5]: 0.42 h | MTT0→4 [5]: 2.87 h | MAT0→4 [6]: 0.72 h | MTT0→4 [6]: 3.18 h | Anatabine Concentration in rat plasma (dose 0.2 mg/kg, female, […], individual animals 2A-2D): <LOQ | Anatabine Concentration in rat plasma (dose 0.2 mg/kg, male, 30 min, individual animals 1A-1D): <LOQ | Anatabine Concentration in rat plasma (dose 0.2 mg/kg, male, 60 min, individual animals 1A-1D): 34 ng/mL | Anatabine Concentration in rat plasma (dose 0.2 mg/kg, male, 235 min, individual animals 1A-1D): <LOQ and 13 ng/mL | Anatabine Concentration in rat plasma (dose 0.2 mg/kg, male, 270 min, individual animals 1A-1D): 31 ng/mL and 20 ng/mL | Anatabine Concentration in rat plasma (dose 0.2 mg/kg, male, 300 min, individual animals 1A-1D): 26 ng/mL and 29 ng/mL | Anatabine Concentration in rat plasma (dose 0.2 mg/kg, male, 475 min, individual animals 1A-1D): 9 ng/mL and <LOQ and 18 ng/mL | Anatabine Concentration in rat plasma (dose 0.2 mg/kg, male, 540 min, individual animals 1A-1D): 4 ng/mL and 28 ng/mL and 41 ng/mL | Anatabine Concentration in rat plasma (dose 0.2 mg/kg, male, 600 min, individual animals 1A-1D): <LOQ and 17 ng/mL and 35 ng/mL | Anatabine Concentration in rat plasma (dose 0.2 mg/kg, male, 720 min, individual animals 1A-1D): <LOQ and 5 ng/mL and 12 ng/mL | Anatabine Concentration in rat plasma (dose 0.2 mg/kg, male, […], individual animals 1A-1D): <LOQ | Anatabine Concentration in rat plasma (dose 2 mg/kg, female, 30 min, individual animals 4A-4D): 78 ng/mL and 218 ng/mL and 98 ng/mL | Anatabine Concentration in rat plasma (dose 2 mg/kg, female, 60 min, individual animals 4A-4D): 81 ng/mL and 95 ng/mL and 165 ng/mL | Anatabine Concentration in rat plasma (dose 2 mg/kg, female, 235 min, individual animals 4A-4D): 75 ng/mL and 36 ng/mL and 23 ng/mL and 72 ng/mL
